Measured values published in patent US20260335295A1, “PHARMACEUTICAL COMPOSITION COMPRISING HTRA ACTIVATOR AS ACTIVE INGREDIENT FOR PREVENTING OR TREATING DEGENERATIVE DISEASES, AND METHOD FOR SCREENING HTRA ACTIVITY MODULATOR” (THE ASAN FOUNDATION, priority 2023, published 2026).

How the values were obtained:
HTRA1 [1] = target: T1, HTRA1 (Homo sapiens, UniProt Q92743); assay: HTRA1 activity in HeLa cells with HTRA1 activity-based probe DS-1-94, fluorescence microscopy; assay type: cell-based; details: E09 10 μM, DS-1-94 5 μM, 37 °C, 1 hour, FIG. 4
Experimental: To confirm whether HTRA1 activity increases even when cells are treated with E09, HTRA1 activity according to the presence or absence of E09 was identified by treating Hela cells, which are human adenocarcinoma cells, with an HTRA1 activity-based probe (DS-1-94, final concentration of 5 μM) and E09 (HTRA activator, final concentration of 10 μM).
Specifically, the cells treated with the HIRAI activity-based probe (DS-1-94) and E09 (HTRA activator) were maintained in a 37 °C incubator for 1 hour.

[2] = system: ARPE-19 retinal pigment epithelial cells; assay: Immunostaining of ApoE and Cathepsin D in three-dimensional long-term culture macular degeneration cell model; assay type: cell-based; details: ARPE-19, 4.5 months culture; vs control group; FIGS. 9A-C
From the text: (§1) In order to verify the preventive or therapeutic effect of compound E09 on age-related macular degeneration (AMD) under conditions similar to an in vivo environment, a macular degeneration cell model using a three-dimensional (3D) long-term culture system was established.
(§2) The model was designed to induce apical-basal polarization of ARPE-19 cells and to reproduce the structural and functional differentiation characteristics of retinal pigment epithelium (RPE), as well as pathological drusen accumulation patterns, through nicotinamide-based long-term culture.
(§3) Specifically, ARPE-19 retinal pigment epithelial cells were seeded at a density of 1.66× 10^5 cells/cm^2 and cultured for two weeks in a medium containing nicotinamide. Thereafter, the cells were re-seeded onto laminin-coated Transwell inserts.
(§4) Subsequently, the medium was replaced every 2-3 days with a medium containing E09 or an HtrA1 inhibitor, and the cells were differentiated for 4.5 months (untreated control group (ctrl), E09-treated group, and HtrA1 inhibitor-treated group).

[3] = system: ARPE-19 retinal pigment epithelial cells; assay: Microvilli formation in three-dimensional long-term culture macular degeneration cell model; assay type: cell-based; details: ARPE-19, 4.5 months culture; FIGS. 9G-I
From the text: as §1, §2, §3, §4

[4] = system: gene sets (transcriptome); assay: Transcriptome analysis (GSEA) in a pathological model of macular degeneration (AMD); details: vs control group, FIG. 12 upper left
Experimental: The collected transcriptome data were analyzed at the gene set level using Gene Set Enrichment Analysis (GSEA).
FIG. 12 is a graph showing the results of GSEA (Gene Set Enrichment Analysis) performed after transcriptome analysis following treatment with Compound E09 or an HTRA1 inhibitor in a pathological model of macular degeneration (AMD).

HTRA1 [5] = target: T1, HTRA1; assay: HTRA1 activation in human blood samples; details: no method given
HTRA1 [6] = target: T1, HTRA1; assay: HTRA1 enzyme activity on addition of casein, PDZ-opt (GQYYFV) or E09; assay type: biochemical; details: 10 μM E09 vs 2 μg β-casein or PDZ-opt; 15 minutes at room temperature, measured at 37 °C 3 hours; FIG. 5
Experimental: HTRA activity was measured utilizing E09 and the HTRA activity-based probes synthesized by the method of Example 4.1. Changes in HTRA activity w ere measured for cases in which casein, known as a substrate of an HTRA enzyme, or PDZ-opt (GQYYFV), known as a peptide that activates an HTRA enzyme, was added and a case in which E09 was added.
Specifically, 2 μg of β-casein or PDZ-opt (GQYYFV) or 10 μM of E09 was added to an HTRA1 enzyme by the method of Example 1, the mixture was allowed to stand at room temperature for 15 minutes, and then HTRA1 activity was measured at 37 °C for 3 hours in the same manner as in Example 1, and the results are shown in FIG. 5.

[7] = system: ARPE-19 retinal pigment epithelial cells; assay: Cell death by TUNEL assay in NaIO3-induced dry macular degeneration cell model; assay type: cell-based; details: pretreated 24 hours, co-treated with NaIO3 12 hours, FIG. 7E-H
Experimental: (§5) In order to confirm the preventive or therapeutic effect of compound E09 on age-related macular degeneration (AMD), a dry age-related macular degeneration (AMD)-like cell model induced by treatment with NaIO3 was established.
as §3
(§6) After culture for one month in a medium containing nicotinamide, the cells were treated with NaIO3 for 12 hours to induce cell injury (NaIO3-alone treatment group), wherein NaIO3 is commonly used for inducing dry age-related macular degeneration (AMD). Structural changes in the cells were then evaluated by analyzing clusterin and ZO-1. E09 and the HtrA1 inhibitor were dissolved in dimethyl sulfoxide (DMSO) and used for the experiments.
(§7) In order to evaluate the effect of E09 on NaIO3-induced cell injury, E09 was pretreated 24 hours prior to NaIO3 treatment and subsequently co-treated with NaIO3 for 12 hours (E09-treated group).
In addition, under the same conditions, NaIO3 and an HtrA1 inhibitor were administered, and a TUNEL assay was performed to evaluate cytotoxicity. […]

[8] = system: NaIO3-induced mouse macular degeneration model (retina); assay: NaIO3-induced mouse macular degeneration model, H&E staining and thickness of retina; assay type: in vivo, C57BL/GJ mice; details: intravitreal injection on Day −1, NaIO3 IV day 0, eyes five days after NaIO3
Experimental: Specifically, C57BL/GJ mice (6 weeks old) were acclimated for one week, and on experimental day 0, NaIO3 was administered via intravenous injection (IV) to induce retinal injury. To evaluate drug efficacy, E09 or an HtrA1 inhibitor was pre-administered by intravitreal injection one day prior to NaIO3 administration (Day −1).
Five days after administration of NaIO3, the eyes were enucleated, and the tissues. were fixed and sectioned. Hematoxylin & Eosin (H&E) staining was then performed to observe morphological changes in the retina.
In particular, the structural preservation status and thickness changes of the retinal pigment epithelium (RPE) layer, photoreceptor outer segments (POS), and the outer nuclear layer (ONL) were primarily analyzed.

[9] = system: ARPE-19 retinal pigment epithelial cells; assay: Cobblestone structure by clusterin and ZO-1 staining in NaIO3-induced dry macular degeneration cell model; assay type: cell-based; details: pretreated 24 hours, co-treated with NaIO3 12 hours
Experimental: as §5, §3, §6, §7
In addition, under the same conditions, NaIO3 and an HtrA1 inhibitor were administered, and a TUNEL assay was performed to evaluate cytotoxicity.

[10] = system: ARPE-19 retinal pigment epithelial cells; assay: Cell barrier structure by ZO-1 and clusterin staining in three-dimensional long-term culture macular degeneration cell model; assay type: cell-based; details: ARPE-19, 4.5 months culture; FIGS. 9D-F
From the text: as §1, §2, §3, §4

HTRA1 [11] = target: T1, HTRA1; assay: HTRA1 activity assay with fluorogenic substrate H2-Opt (high-throughput screening); assay type: biochemical
Experimental: (§8) HTRA activity was identified through high-throughput screening using H2-Opt, a commercially available fluorogenic substrate.
(§9) Specifically, purified recombinant HTRA1 protein (50 ng) and a compound (final concentration of 10 μM) were added to 80 μL of an assay buffer in each well of a 96-well plate and were allowed to stand at room temperature for 30 minutes. Immediately after 20 μL of an H2-OPT solution (final concentration of 6.25 μM) was added thereto and mixed, fluorescence signals generated therefrom were measured using an MS microplate reader device manufactured by Molecular Devices. Upon measurement of the fluorescence signals in kinetic mode, excitation and emission were set to 328 nm and 393 nm, respectively, and changes in the fluorescence signals were measured at 37 °C for 3 hours at intervals of 30 seconds.
(§10) Specifically, different concentrations of E09 (0.01, 0.1, 1, 10, and 100 (M) w ere added to purified recombinant HTRA1 and HTRA2, and activities of HTRA1 and HTRA2 were measured in the same manner as the high-throughput screening of Example 1. Fluorescence signals at the end of measurement (3 hours) were measured for each concentration. Graphs obtained by measuring the fluorescence signals of HTRA1 and HTRA2 are shown in FIGS. 2 and 3.

[12] = system: ARPE-19 retinal pigment epithelial cells; assay: Holotomography analysis in three-dimensional long-term culture macular degeneration cell model; assay type: cell-based; details: ARPE-19, 4.5 months culture; FIGS. 9J-L
From the text: as §1, §2, §3, §4

HTRA2 = target: T2, HTRA2 (Homo sapiens, UniProt O43464); assay: HTRA2 activity assay with fluorogenic substrate H2-Opt; assay type: biochemical
T2 sequence (O43464 134-458): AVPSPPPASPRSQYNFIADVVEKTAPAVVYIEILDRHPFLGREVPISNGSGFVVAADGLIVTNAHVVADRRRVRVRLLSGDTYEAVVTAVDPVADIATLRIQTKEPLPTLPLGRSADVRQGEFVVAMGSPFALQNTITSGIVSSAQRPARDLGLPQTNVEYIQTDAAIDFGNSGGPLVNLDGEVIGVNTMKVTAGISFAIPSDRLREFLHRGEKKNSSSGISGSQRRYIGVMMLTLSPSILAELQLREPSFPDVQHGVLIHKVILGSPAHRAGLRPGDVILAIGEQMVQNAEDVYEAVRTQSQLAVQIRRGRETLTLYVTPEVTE
Experimental: as §8, §9, §10

T1 sequence (Q92743 23-480): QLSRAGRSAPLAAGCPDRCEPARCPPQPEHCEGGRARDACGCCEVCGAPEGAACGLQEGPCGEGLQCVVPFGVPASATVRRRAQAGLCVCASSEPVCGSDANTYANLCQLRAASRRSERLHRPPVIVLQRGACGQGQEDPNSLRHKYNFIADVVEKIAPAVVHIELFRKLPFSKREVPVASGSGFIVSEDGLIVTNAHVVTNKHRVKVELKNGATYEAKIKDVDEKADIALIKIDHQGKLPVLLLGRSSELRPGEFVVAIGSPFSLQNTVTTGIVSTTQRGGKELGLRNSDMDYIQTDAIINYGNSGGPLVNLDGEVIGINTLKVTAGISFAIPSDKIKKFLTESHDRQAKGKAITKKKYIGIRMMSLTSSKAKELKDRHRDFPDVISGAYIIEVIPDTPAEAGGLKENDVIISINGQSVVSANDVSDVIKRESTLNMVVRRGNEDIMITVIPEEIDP

With `COC(=O)C1CCC(NC(=O)c2ccc(-c3nc(C)cs3)cc2)(C(=O)OC)CC1` (centres unmarked) [Compound E09, dimethyl 1-(4-(4-methylthiazol-2-yl)benzamido)cyclohexane-1,4-dicarboxylate] the “fluorescence signal of HTRA1 probe (HTRA1 activity)” value (HTRA1 [1]) was “fluorescence signal markedly increased”, the “expression / accumulation of ApoE (drusen marker)” value [2] was “expression levels of these markers tended to decrease compared with the control group” and the “expression / accumulation of cathepsin D (drusen marker)” value [2] was “expression levels of these markers tended to decrease compared with the control group”. The microvilli formation [3] was “increased microvilli development”, the “expression of gene sets associated with retinal vascular lesions (retinal telangiectasia and vascular tortuosity)” value [4] was “overall tendency toward decreased expression” and the “HTRA1 activation in human blood samples” value (HTRA1 [5]) was “also activates HTRA1 in human blood samples”. The “HTRA1 activation compared with casein or PDZ-opt (GQYYFV)” value (HTRA1 [6]) was “activates the HTRA1 enzyme at room temperature far more significantly than casein or PDZ-opt (GQYYFV)”, the “NaIO3-induced cell death (TUNEL assay)” value [7] was “NaIO3-induced cell death was significantly suppressed” and the “tissue continuity (H&E)” value ([8]; FIG. 11A) was “tissue continuity was well maintained”. The ONL thickness ([8]; FIG. 11B) was “significantly suppressed NaIO3-induced thinning and protected retinal structure”, the “separation of the retinal (RPE-POS) layers (H&E)” value ([8]; vs DMSO control, FIG. 11A) was “separation of the retinal layers was markedly suppressed” and the “structural damage induced by NaIO3 / cobblestone structure” value ([9]; FIG. 7A-D) was “structural damage induced by NaIO3 was significantly suppressed”. For the same compound, the “monolayer structure of the cells” value ([9]; FIG. 7C) was “the monolayer structure of the cells was preserved”, the “ZO-1 and clusterin staining pattern (epithelial barrier)” value [10] was “maintained a continuous and regular staining pattern along the cell boundaries, indicating formation of a robust epithelial barrier structure” and the “dose dependency of HTRA1 activity” value (HTRA1 [11]; 0.01, 0.1, 1, 10, and 100 (M) as printed, signal at 3 hours, FIG. 2) was “activates HTRA1 and HTRA2 in a dose-dependent manner”. The “activation ability in HTRA1 (both HTRA1 and HTRA2)” value (HTRA1 [11]; Example 1, in words) was “excellent activation ability in both HTRA1 and HTRA2”, the HTRA1 activation (HTRA1 [11]; screening, final concentration of 10 μM, H2-OPT 6.25 μM, 37 °C, 3 hours, FIG. 1) was “significantly activate HTRA1” and the “cytoskeletal structure (holotomography)” value [12] was “a stable cytoskeletal structure was maintained”. For the same compound, the “dose dependency of HTRA2 activity” value (HTRA2; 0.01, 0.1, 1, 10, and 100 (M) as printed, signal at 3 hours, FIG. 3) was “activates HTRA1 and HTRA2 in a dose-dependent manner” and the “activation ability in HTRA2 (both HTRA1 and HTRA2)” value (HTRA2; Example 1, in words) was “excellent activation ability in both HTRA1 and HTRA2”.
